Results taken from publication PMC12892976, “Alkylation-based optimization of antifungal FPPS inhibitors yields a potent, broad-spectrum lipophilic zoledronate derivative” (mBio, 2025).

What was measured:
Trichophyton soudanense = test: checkerboard drug interaction (FICI, MICc); type: cell-based;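 note: simplified diagonal checkerboard screen pairing antifungals with FPPS inhibitors, FICI computed under the Loewe additivity model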
Procedure: (§2) Drug interactions between antifungals and FPPS inhibitors were investigated using a simplified checkerboard diagonal screening method ([45]). […] FICIs were determined according to the Loewe additivity model ([17]).

[1] = system: Aspergillus flavus biofilms; test: biofilm XTT reduction assay (SIC80, SFICI); type: cell-based; conditions: for SICc / SFICI: Aspergillus flavus
Excerpt: (§1) […]. […] […].

[2] = system: Aspergillus fumigatus biofilms; test: biofilm XTT reduction assay (SIC80, SFICI); type: cell-based; conditions: for SICc / SFICI: Aspergillus fumigatus
Excerpt: as §1

[3] = system: Candida glabrata biofilms; test: biofilm XTT reduction assay (SIC80, SFICI); type: cell-based; conditions: for SICc / SFICI: Candida glabrata
Excerpt: as §1

Nannizzia gypsea = test: checkerboard drug interaction (FICI, MICc);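 note: simplified diagonal checkerboard screen pairing antifungals with FPPS inhibitors, FICI derived using the Loewe additivity model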
Procedure: as §2

Candida tropicalis = test: checkerboard drug interaction (FICI, MICc); type: cell-based;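 note: simplified diagonal checkerboard screen of antifungal plus FPPS inhibitor combinations, with FICI computed by the Loewe additivity model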
Procedure: as §2

Nannizzia nana = test: checkerboard drug interaction (FICI, MICc); type: cell-based;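 note: simplified diagonal checkerboard screen pairing antifungals with FPPS inhibitors, FICI calculated under the Loewe additivity model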
Procedure: as §2

Fusarium solani = test: checkerboard drug interaction (FICI, MICc); type: cell-based;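 note: simplified diagonal checkerboard screen pairing antifungals with FPPS inhibitors, FICI derived under the Loewe additivity model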
Procedure: as §2

Scedosporium apiospermum = test: MIC broth microdilution (CLSI); type: cell-based; conditions: Scedosporium apiospermum 04-16-022-2268
Procedure: (§3) Antifungal susceptibility was determined by broth microdilution according to the CLSI guidelines described in M27-Ed4 ([16]).

Fusarium oxysporum = test: MIC broth microdilution (CLSI); type: cell-based; conditions: Fusarium oxysporum 07-200-3012
Procedure: as §3

[4] = system: Trichophyton rubrum biofilms; test: biofilm XTT reduction assay (SIC80, SFICI); type: cell-based; conditions: for SICc / SFICI: Trichophyton rubrum
Procedure: (§4) Biofilms of Cryptococcus were seeded in DMEM, and all other species were seeded in RPMI-1640.

[5] = system: Cryptococcus neoformans biofilms; test: biofilm XTT reduction assay (SIC80, SFICI); conditions: for SICc / SFICI: Cryptococcus neoformans
Procedure: as §4

[6] = system: Saccharomyces cerevisiae biofilms; test: biofilm XTT reduction assay (SIC80, SFICI); type: cell-based; conditions: for SICc / SFICI: Saccharomyces cerevisiae
Procedure: as §4

Epidermophyton floccosum = test: MIC broth microdilution (CLSI); type: cell-based; conditions: Epidermophyon floccosum R-113
Procedure: as §3

Aspergillus felis = test: MIC broth microdilution (CLSI); type: cell-based; conditions: Aspergillus felis IHE87256683D6
Procedure: as §3

With `CCCCCCCCCCn1cc[n+](CC(O)(P(=O)(O)O)P(=O)(O)O)c1` [10-ZOL, Decyl-zoledronate] the FICI (Trichophyton soudanense; VOR:10-ZOL) was 0.61, the “bisphosphonate MICc” value (Trichophyton soudanense; with 5FC) was 2 and the “bisphosphonate MICc” value (Trichophyton soudanense; with AMB) was 0.25. The “bisphosphonate MICc” value (Trichophyton soudanense; with CAS) was 0.5, the “bisphosphonate MICc” value (Trichophyton soudanense; with FLC) was 0.5 and the “bisphosphonate MICc” value (Trichophyton soudanense; with ITR) was 0.125. For the same molecule, the “bisphosphonate MICc” value (Trichophyton soudanense; with KET) was 1, the “bisphosphonate MICc” value (Trichophyton soudanense; with VOR) was 0.25 and the SICc ([1]; FLC:10-ZOL combination) was 16 µg/mL. It also gave an SFICI ([1]; FLC:10-ZOL) of 0.63, an SICc ([1]; ITR:10-ZOL combination) of 64 µg/mL and an SFICI ([1]; ITR:10-ZOL) of 1.00. The SICc ([1]; KET:10-ZOL combination) was 32 µg/mL, the SFICI ([1]; KET:10-ZOL) was 0.75 and the SIC80 ([1]; agent alone, Aspergillus flavus ATCC 204304) was 128 µg/mL. It also gave an SICc ([2]; FLC:10-ZOL combination) of 64 µg/mL, an SFICI ([2]; FLC:10-ZOL) of 0.63 and an SICc ([2]; ITR:10-ZOL combination) of 32 µg/mL. For the same molecule, the SFICI ([2]; ITR:10-ZOL) was 0.75, the SICc ([2]; KET:10-ZOL combination) was 16 µg/mL and the SFICI ([2]; KET:10-ZOL) was 0.38. It also gave an SIC80 ([2]; agent alone, Aspergillus fumigatus ATCC 204305) of 128 µg/mL, an SICc ([3]; FLC:10-ZOL combination) of 4 µg/mL and an SFICI ([3]; FLC:10-ZOL) of 0.63. The SICc ([3]; ITR:10-ZOL combination) was 4 µg/mL, the SFICI ([3]; ITR:10-ZOL) was 1.00 and the SICc ([3]; KET:10-ZOL combination) was 2 µg/mL. The SFICI ([3]; KET:10-ZOL) was 0.50, the SIC80 ([3]; agent alone, Candida glabrata CBS138) was 8 µg/mL and the FICI (Nannizzia gypsea; AMB:10-ZOL) was 2. It also gave an FICI (Nannizzia gypsea; CAS:10-ZOL) of 2.25, an FICI (Nannizzia gypsea; ITR:10-ZOL) of 1.5 and an FICI (Nannizzia gypsea; VOR:10-ZOL) of 1.5. The “bisphosphonate MICc” value (Nannizzia gypsea; with 5FC) was 0.5, the “bisphosphonate MICc” value (Nannizzia gypsea; with AMB) was 0.5 and the “bisphosphonate MICc” value (Nannizzia gypsea; with CAS) was 1. The “bisphosphonate MICc” value (Nannizzia gypsea; with FLC) was 0.25, the “bisphosphonate MICc” value (Nannizzia gypsea; with ITR) was 0.25 and the “bisphosphonate MICc” value (Nannizzia gypsea; with KET) was 0.25. For the same molecule, the “bisphosphonate MICc” value (Nannizzia gypsea; with VOR) was 0.25, the FICI (Candida tropicalis; 5FC:10-ZOL) was 1.5 and the FICI (Candida tropicalis; CAS:10-ZOL) was at least 4. The FICI (Candida tropicalis; VOR:10-ZOL) was 0.5, the “bisphosphonate MICc” value (Candida tropicalis; with 5FC) was 1 and the “bisphosphonate MICc” value (Candida tropicalis; with AMB) was 0.125. For the same molecule, the “bisphosphonate MICc” value (Candida tropicalis; with CAS) was 1, the “bisphosphonate MICc” value (Candida tropicalis; with FLC) was 1 and the “bisphosphonate MICc” value (Candida tropicalis; with ITR) was 0.125. For the same molecule, the “bisphosphonate MICc” value (Candida tropicalis; with KET) was 0.25, the “bisphosphonate MICc” value (Candida tropicalis; with VOR) was 0.5 and the FICI (Nannizzia nana; 5FC:10-ZOL) was 2. For the same molecule, the FICI (Nannizzia nana; AMB:10-ZOL) was 2.25, the FICI (Nannizzia nana; CAS:10-ZOL) was 2.17 and the FICI (Nannizzia nana; FLC:10-ZOL) was 1.5. For the same molecule, the FICI (Nannizzia nana; ITR:10-ZOL) was 2, the FICI (Nannizzia nana; VOR:10-ZOL) was 1.17 and the “bisphosphonate MICc” value (Nannizzia nana; with 5FC) was 1. For the same molecule, the “bisphosphonate MICc” value (Nannizzia nana; with AMB) was 0.25, the “bisphosphonate MICc” value (Nannizzia nana; with CAS) was 0.25 and the “bisphosphonate MICc” value (Nannizzia nana; with FLC) was 0.5. For the same molecule, the “bisphosphonate MICc” value (Nannizzia nana; with ITR) was 1, the “bisphosphonate MICc” value (Nannizzia nana; with KET) was 0.25 and the “bisphosphonate MICc” value (Nannizzia nana; with VOR) was 0.125. The FICI (Fusarium solani; 5FC:10-ZOL) was at least 4, the FICI (Fusarium solani; CAS:10-ZOL) was 2 and the FICI (Fusarium solani; VOR:10-ZOL) was 0.53. The “bisphosphonate MICc” value (Fusarium solani; with 5FC) was 1, the “bisphosphonate MICc” value (Fusarium solani; with AMB) was 0.25 and the “bisphosphonate MICc” value (Fusarium solani; with CAS) was 4. For the same molecule, the “bisphosphonate MICc” value (Fusarium solani; with FLC) was 0.5, the “bisphosphonate MICc” value (Fusarium solani; with ITR) was 0.5 and the “bisphosphonate MICc” value (Fusarium solani; with KET) was 2. The “bisphosphonate MICc” value (Fusarium solani; with VOR) was 0.125, the “MIC / MEC” value (Scedosporium apiospermum) was 4 µg/mL and the “MIC / MEC” value (Fusarium oxysporum) was 8 µg/mL. The “FICI range (biofilm)” value ([4]; azoles with 10-ZOL, Trichophyton rubrum biofilms) was 0.38–0.50, the SICc ([4]; biofilm, FLC:10-ZOL combination) was 16 µg/mL and the SFICI ([4]; biofilm, FLC:10-ZOL) was 0.38. It also gave an SICc ([4]; biofilm, ITR:10-ZOL combination) of 16 µg/mL, an SFICI ([4]; biofilm, ITR:10-ZOL) of 0.38 and an SICc ([4]; biofilm, KET:10-ZOL combination) of 16 µg/mL. For the same molecule, the SFICI ([4]; biofilm, KET:10-ZOL) was 0.50, the SIC80 ([4]; biofilm, agent alone, Trichophyton rubrum 213) was 64 µg/mL and the SICc ([5]; FLC:10-ZOL combination) was 32 µg/mL. It also gave an SFICI ([5]; FLC:10-ZOL) of 0.75, an SICc ([5]; ITR:10-ZOL combination) of 16 µg/mL and an SFICI ([5]; ITR:10-ZOL) of 0.63. For the same molecule, the SICc ([5]; KET:10-ZOL combination) was 8 µg/mL, the SFICI ([5]; KET:10-ZOL) was 0.56 and the SIC80 ([5]; agent alone, Cryptococcus neoformans H99) was 128 µg/mL. For the same molecule, the SICc ([6]; FLC:10-ZOL combination) was 32 µg/mL, the SFICI ([6]; FLC:10-ZOL) was 0.75 and the SICc ([6]; ITR:10-ZOL combination) was 32 µg/mL. The SFICI ([6]; ITR:10-ZOL) was 1.00, the SICc ([6]; KET:10-ZOL combination) was 8 µg/mL and the SFICI ([6]; KET:10-ZOL) was 0.63. For the same molecule, the SIC80 ([6]; agent alone, Saccharomyces cerevisiae S288c) was 64 µg/mL, the “MIC / MEC” value (Epidermophyton floccosum) was 0.5 µg/mL and the “MIC / MEC” value (Aspergillus felis) was 2 µg/mL.
